Experimental data reported in PubChem BioAssay (NCI).
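Tested at 5 concentrations; 48 h exposure; 96-well plates; endpoints linearly interpolated, else capped at highest concentration. GI50 = concentration required for 50% inhibition of growth. TGI: concentration producing complete growth inhibition.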

Tests used:
Experiment in all cases: NCI tumour cell line growth inhibition, 48 h
HS 578T breast = system: HS 578T breast
BT-549 breast = system: BT-549 breast
NCI/ADR-RES ovarian = system: NCI/ADR-RES ovarian
SNB-78 CNS = system: SNB-78 CNS
XF 498 CNS = system: XF 498 CNS
M19-MEL melanoma = system: M19-MEL melanoma
HOP-18 NSCLC = system: HOP-18 NSCLC
RXF-631 renal = system: RXF-631 renal
MDA-N = system: MDA-N

How did the GI50 (HS 578T breast) turn out when COc1cc2c(cc1OCCCOc1cc3c(cc1OC)C(=O)N1CC(F)(F)C[C@H]1C=N3)N=C[C@@H]1CC(F)(F)CN1C2=O was run?
Its GI50 is 3.13 µM.

And the TGI (HS 578T breast)?
The TGI was 15.3 µM.

And the GI50 (BT-549 breast)?
Its GI50 is 0.727 µM.

And the TGI (BT-549 breast)?
The TGI was 3.12 µM.

What about the GI50 (NCI/ADR-RES ovarian) of the same compound?
The GI50 was 21.4 µM.

What about the TGI (NCI/ADR-RES ovarian) of the same compound?
Its TGI is > 84 µM.

How did the TGI (HS 578T breast) turn out when NCc1ccc(O)c(O)c1O was run?
The TGI was 54.9 µM.

What about the TGI (SNB-78 CNS) of the same compound?
The TGI was > 100 µM.

What about the TGI (XF 498 CNS) of the same compound?
The TGI was 56.4 µM.

What about the TGI (M19-MEL melanoma) of the same compound?
Its TGI is 26.9 µM.

And the TGI (BT-549 breast)?
The TGI was 34.2 µM.

What about the TGI (HOP-18 NSCLC) of the same compound?
The TGI was > 100 µM.

CN(C)C=O.CN(C)C=O.CN1C(C(=O)Nc2ccccn2)=C([O-])c2ccccc2S1(=O)=O.CN1C(C(=O)Nc2ccccn2)=C([O-])c2ccccc2S1(=O)=O.[Cu+2] was tested. Which GI50 (RXF-631 renal) did it give?
Its GI50 is 87.4 µM.

And the TGI (RXF-631 renal)?
Its TGI is > 100 µM.

What about the GI50 (SNB-78 CNS) of the same compound?
Its GI50 is 64.3 µM.

What about the TGI (SNB-78 CNS) of the same compound?
The TGI was > 100 µM.

And the GI50 (XF 498 CNS)?
The GI50 was 18.8 µM.

And the TGI (XF 498 CNS)?
The TGI was 34.4 µM.

And the GI50 (M19-MEL melanoma)?
Its GI50 is 31 µM.

And the TGI (M19-MEL melanoma)?
Its TGI is > 100 µM.

What about the GI50 (HOP-18 NSCLC) of the same compound?
Its GI50 is > 100 µM.

And the TGI (HOP-18 NSCLC)?
Its TGI is > 100 µM.

With CCc1cc(C)cc2[n+]1CC=C2C as the compound, how does the TGI (SNB-78 CNS) read?
The TGI was > 100 µM.

What about the TGI (M19-MEL melanoma) of the same compound?
The TGI was > 100 µM.

And the TGI (HOP-18 NSCLC)?
Its TGI is 9.88 µM.

What does the source list for Cn1ncc2c(=O)[nH]c(-c3ccccc3)nc21?
TGI (RXF-631 renal): > 100 µM; TGI (SNB-78 CNS): > 100 µM; TGI (XF 498 CNS): > 100 µM

For O=C(O)\C=C/C=C/C=C/C=C/C(=O)O, which TGI (SNB-78 CNS) is on record?
The TGI was > 100 µM.

And the TGI (HOP-18 NSCLC)?
Its TGI is > 100 µM.

Which results are given for NC(CCCNc1ccc(O)cc1)C(=O)O (stereo not drawn)?
TGI (RXF-631 renal): > 100 µM; TGI (SNB-78 CNS): > 100 µM; TGI (XF 498 CNS): 38.2 µM; TGI (M19-MEL melanoma): 32.7 µM; TGI (HOP-18 NSCLC): > 100 µM

For CC(C)C(C)C(O)C(O)C(C)C1CCC2C3COC(=O)C4CC(O)C(O)CC4(C)C3CCC12C (stereo not drawn), which TGI (HS 578T breast) is on record?
The TGI was > 100 µM.

And the TGI (MDA-N)?
The TGI was > 100 µM.

And the TGI (BT-549 breast)?
Its TGI is > 100 µM.

And the TGI (NCI/ADR-RES ovarian)?
Its TGI is > 100 µM.

With CC1(C)CCCC2(C)C3=C(CCC12)C(=O)OC3 (stereo not drawn) as the compound, how does the TGI (HS 578T breast) read?
Its TGI is > 100 µM.

And the TGI (MDA-N)?
The TGI was > 100 µM.

What about the TGI (BT-549 breast) of the same compound?
The TGI was > 100 µM.

What about the TGI (NCI/ADR-RES ovarian) of the same compound?
The TGI was > 100 µM.

With COC(=O)C12OCC34C(CC5C(C)C6=CC(=O)OC6=CC5(C)C3C(O)C1O)OC(=O)C(OC(C)=O)C24 (stereo not drawn) as the compound, how does the TGI (RXF-631 renal) read?
Its TGI is 33.9 µM.

And the TGI (SNB-78 CNS)?
The TGI was 48.7 µM.

What about the TGI (XF 498 CNS) of the same compound?
The TGI was 25.4 µM.

And the TGI (M19-MEL melanoma)?
Its TGI is 40.9 µM.

And the TGI (HOP-18 NSCLC)?
Its TGI is 27.9 µM.
